Assay results published in patent US20210270852A1, “Methods of Detecting Neuroaxonal Dystrophy Disorders Associated with Vitamin E Deficiency and Uses Thereof” (The Regents of the University of California, priority 2018, published 2021).
Each block holds one compound with its values, some of them ahead of it.

Tests used:
[1] = Initial trials: detected range of plasma vitamin E metabolites (LC-MS); type: in vivo, horse
Procedure: (§1) Analytes were simultaneously quantified via ultra-performance liquid chromatography-tandem mass spectrometry (LC-MS). LC-MS analysis was carried out using a Bruker EVOQ LC-TQ Mass Spectrometer coupled with a Bruker Advance HPLC system (Bruker Corp, Freemont, Calif., USA). Mass spectral data for α- and γ-tocopherols and α- and γ-tocotrienols were acquired in the positive ion electrospray ionization (ESI) mode with the following retention times (RT) and scan events: γ-tocotrienol—RT 11.65 min, MRM 411.0>151.0 (CE 19.0V), α-tocotrienol—RT 12.0 min, MRM 425.1>165.1 (CE 20.0V), γ-tocopherol—RT 13.3 min, MRM 417.2>151.0 (CE 25.0V), 5-methyl-D3,7-methyl-D3 (TD6)—RT 13.8 min, MRM 437.4>171.0 (CE 27.0V), and α-tocopherol—RT 13.8 min, MRM 431.2>165.0 (CE 25.0V). Mass spectral data for α- and γ-CEHC and α-CMBHC were acquired in the negative ion ESI mode with the following retention times (RT) and scan events: α-CMBHC—RT 7.45 min, MRM 319.1>150.1 (CE 22.0V), α-CEHC—RT 5.70 min, MRM 277.0>233.1 (CE 14.0V), and γ-CEHC—RT 5.30 min, MRM 263.1>219.1 (CE13.0V). Quantification was carried out using a 10-point calibration curve covering the range from 0.1 ng/mL to 5,000 ng/mL and linear regression. Each level of calibration standard contained the internal standard TD6 at 100 ng/mL and CUDA at 2 ng/mL, matching their final concentrations in the analysis samples.
The limit of detection (ng/mL) and detected range (ng/mL), respectively, for each plasma vitamin E metabolite measured in these initial trials were as follows: α-TOH (0.1; 500-1000), γ-TOH (0.2; 10-15), α-tocotrienol (0.2; 0.2-0.6), γ-tocotrienol (0.2; 5-10), α-CMBHC (<0.05; 0.1-0.4), γ-CEHC (<0.05; 0.2-0.6), and α-CEHC (<0.05; 0.1-0.2).

[2] = Reference values of tocopherols, tocotrienols and metabolites in healthy grazing Thoroughbred horses (LC-MS); type: in vivo, horse
Procedure: (§2) In particular, the levels of a panel of tocopherols and tocopherol metabolites were assessed by liquid chromatography-mass spectrometry (LC-MS) in samples obtained from eNAD affected horses and matched healthy controls. Reference ranges of α-TOH, γ-TOH, α-TOT, γ-TOT, α-CEHC, γ-CEHC, and α-CMBHC were determined from serum, plasma and urine samples obtained from 16 healthy adult Thoroughbred horses on pasture. Next a supplementation trial was performed employing samples from eNAD-affected horses and neurologically normal age and sex-matched controls. Levels were assessed at baseline and after administration of bioavailable RRR-alpha-tocopherol according to the sample collection schedule described (see e.g., FIG. 2).
as §1

[3] = Supplementation trial: serum levels in eNAD-affected and control horses at baseline and after bioavailable RRR-alpha-tocopherol (LC-MS); type: in vivo, horse
Procedure: This example describes investigations into the role of metabolism of α-TOH in horses affected with eNAD/EDM. Accordingly, the rate of α-TOH and γ-TOH metabolism was determined through the measurement of CEHCs in healthy and eNAD-affected horses following α-TOH supplementation.
as §2, §1
Simultaneous quantification of α-TOH, γ-TOH, α-tocotrienol, γ-tocotrienol, α-CEHC, γ-CEHC, and α-CMBHC has not been previously performed in the horse. Data was Log-transformed. Correspondence between sample types (e.g., plasma vs. serum) was evaluated and statistical testing by Mixed-model ANOVA was performed (fixed variables=disease, time; randomized variable=horse; 2-way interactions; p<0.05).

[4] = earlier study; cited from earlier work
[5] = serum, healthy grazing TBs, tocotrienols

Compound: Cc1c(C)c2c(c(C)c1O)CCC(C)(CCC(=O)O)O2 (stereo not drawn) [α-CEHC, alpha-carboxyethyl-hydroxychroman]
detected range of plasma vitamin E metabolite ([1]; in vivo): 0.1 to 0.2 ng/mL
mean value for healthy grazing TBs ([2]; in vivo): 0.33±0.12
median value for healthy grazing TBs ([2]; in vivo): 0.31
range of values for healthy grazing TBs ([2]; in vivo): 0.18-0.67

Compound: Cc1c(C)c2c(c(C)c1O)CCC(C)(CCCC(C)C(=O)O)O2 (stereo not drawn) [α-CMBHC, 2-(4-Carboxy-4-methylbutyl)-6-hydroxy-2,5,7,8-tetramethylchroman]
detected range of plasma vitamin E metabolite ([1]; horse, in vivo): 0.1 to 0.4 ng/mL
Serum α-CMBHC (median, range) ([3]; horse, in vivo, 56 day): 0.32 (0.12-0.40) ng/mL
concentration at 56 day ([3]; horse, in vivo, Serum α-CMBHC (median, range)): 0.28 ng/mL
mean value for healthy grazing TBs ([2]; Thoroughbred, horse, in vivo): 0.72±0.37
median value for healthy grazing TBs ([2]; Thoroughbred, horse, in vivo): 0.6
range of values for healthy grazing TBs ([2]; Thoroughbred, horse, in vivo): 0.32-1.71

Compound: Cc1c(C)c2c(c(C)c1O)CC[C@@](C)(CCC[C@H](C)CCC[C@H](C)CCCC(C)C)O2 [α-TOH, alpha-tocopherol, reference compound]
detected range of plasma vitamin E metabolite ([1]; in vivo): 500 to 1000 ng/mL
rate of α-TOH metabolism in eNAD horses vs control horses ([3]; in vivo): faster rates than control horses
mean value for healthy grazing TBs ([2]; in vivo): 4292±892
median value for healthy grazing TBs ([2]; in vivo): 4348
range of values for healthy grazing TBs ([2]; in vivo): 2855-6299
α-TOH absorption indices, eNAD-affected vs unaffected horses [4]: no significant differences

Compound: Cc1c(O)cc2c(c1C)O[C@](C)(CCC[C@H](C)CCC[C@H](C)CCCC(C)C)CC2 [γ-TOH, gamma-tocopherol]
detected range of plasma vitamin E metabolite ([1]; horse, in vivo): 10 to 15 ng/mL
mean value for healthy grazing TBs ([2]; Thoroughbred, horse, in vivo): 27.1±9.82
median value for healthy grazing TBs ([2]; Thoroughbred, horse, in vivo): 25.6
range of values for healthy grazing TBs ([2]; Thoroughbred, horse, in vivo): 10.3-44.7

Compound: CC(C)=CCC/C(C)=C/CC/C(C)=C/CC[C@]1(C)CCc2cc(O)c(C)c(C)c2O1 [γ-TOT, gamma-tocotrienol]
detected range of plasma vitamin E metabolite ([1]; plasma, initial trials): 5 to 10 ng/mL
difference in serum tocotrienol levels with time or disease ([3]; serum, eNAD vs control horses, over time): no significant difference
mean value in healthy grazing TBs [2, 5]: 0.13 ± 0.36 ng/mL
median value in healthy grazing TBs [2, 5]: 0.02 ng/mL
range of values in healthy grazing TBs [2, 5]: 0.02 to 1.79 ng/mL

Other lines, results leading:

detected range of plasma vitamin E metabolite ([1]; in vivo): 0.2 to 0.6 ng/mL
mean value for healthy grazing TBs ([2]; in vivo): 0.43±0.18
median value for healthy grazing TBs ([2]; in vivo): 0.38
range of values for healthy grazing TBs ([2]; in vivo): 0.26-0.89
Compound: Cc1c(O)cc2c(c1C)OC(C)(CCC(=O)O)CC2 (stereo not shown) [γ-CEHC, gamma-carboxyethyl-hydroxychroman]

detected range of plasma vitamin E metabolite ([1]; in vivo): 0.2 to 0.6 ng/mL
difference in serum tocotrienol levels with time or disease ([3]; in vivo): no significant difference
mean value in healthy grazing TBs ([2]; in vivo): 0.31 ± 0.36 ng/mL
median value in healthy grazing TBs ([2]; in vivo): 0.15 ng/mL
range of values in healthy grazing TBs ([2]; in vivo): 0.004 to 1 ng/mL
Compound: alpha-tocotrienol [α-TOT]
